From US20240415819A1, “MACROCYCLIC COMPOUNDS AS PROTEASOME SUBUNIT BETA TYPE-5 INHIBITORS” (Lead Discovery Center GmbH, priority 2021, published 2024)
pIC50: −log10 of the molar value.

Legend:
[1] = biological target: T1, β5 subunit of the human constitutive proteasome (CPS) (Homo sapiens, UniProt P28074); experiment: β5 inhibition assay, human constitutive proteasome (Suc-LLVY-AMC); format: biochemical; conditions: IC50 class, Suc-LLVY-AMC substrate
T1 construct: purchased Boston Biochem E-360
Procedure: The enzymatic activity of the β5 subunit of the human constitutive proteasome (CPS) is analyzed. In another assay, which differs from the assay of the human constitutive proteasome only in using the human immunoproteasome (IPS) the enzymatic activity of the β5 subunit of the human immunoproteasome (IPS) is analyzed. […] Inhibition is indicated as IC50 [nM] (“-”=not measured).

[2] = biological target: T2, β5 subunit of the human immunoproteasome (IPS) (Homo sapiens, UniProt P28062); experiment: β5 inhibition assay, human immunoproteasome (Suc-LLVY-AMC); format: biochemical; conditions: IC50 class, Suc-LLVY-AMC substrate
T2 construct: purchased Boston Biochem E-370
In short: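 β5 activity is read as liberated AMC fluorescence (355/460 nm) after 4 h dark reaction at RT with 22.6 μM Suc-LLVY-AMC, stopped by 1 μM bortezomib. Beforehand, 1 nM human IPS and compound sat 10 min at RT in HEPES pH 7.5 buffer containing NaCl, 0.02% SDS and DTT.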

[3] = test system: HT-29 cells; experiment: CellTiter-Glo luminescent cell viability assay with HT-29 cells (72h incubation); format: cell-based, human; conditions: Homo sapiens, HT-29, HT29 cells, read-out: CTG HT29
In short: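 Viability read as CellTiter-Glo luminescence after 72 h compound exposure, with 10 μM staurosporine and DMSO as control wells. Seeding 400 cells per well, compound added 24 h post-plating; IC50 from curve fitting.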

[4] = test system: A549 (human lung carcinoma cell line); experiment: Glo assay of A549 cells (Table 3; ProteasomeGlo plating scheme); format: cell-based; conditions: Homo sapiens; A549 cells; read-out: PGLo A549
In short: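 Compound treatment lasts 105 minutes at 37° C. under 5% CO2. Suc-LLVY-Glo substrate premixed with detection reagent (60 min at room temperature) is then added directly to the cells, and luminescence after 10-15 min in the dark gives the IC50 in nM.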

SMILES	pIC50 [1]	pIC50 [2]	pIC50 [3]	pIC50 [4]
Cc1ccc2cc1CNC(=O)[C@H](CCc1ccccc1)NC(=O)[C@@H](N)CC(=O)N1CCCC(CCO2)C1 (stereo partly drawn) [Compound 8, (9S,12S)-12-amino-5^4-methyl-9-phenethyl-4-oxa-7,10-diaza-1(3,1)-piperidina-5(1,3)-benzenacyclotetradecaphane-8,11,14-trione]	> 7.00	> 7.00	6.30 to 7.00	6.00 to 6.30
Cc1ccc2cc1CNC(=O)C(CCc1cccnc1)NC(=O)CCC(=O)N1CCCC(CCO2)C1 (stereo not shown) [Compound 51, 5^4-methyl-9-(2-(pyridin-3-yl)ethyl)-4-oxa-7,10-diaza-1(3,1)-piperidina-5(1,3)-benzenacyclotetradecaphane-8,11,14-trione]	> 7.00	> 7.00	5.30 to 6.00	6.30 to 7.00
Cc1ccc2cc1CNC(=O)[C@H](CCc1ccccc1)NC(=O)[C@@H](NC(=O)CN1CCOCC1)CC(=O)N1CCCC(CCO2)C1 (stereo partly drawn) [Compound 88, N-((9S,12S)-5^4-methyl-8,11,14-trioxo-9-phenethyl-4-oxa-7,10-diaza-1(3,1)-piperidina-5(1,3)-benzenacyclotetradecaphane-12-yl)-2-morpholinoacetamide]	> 7.00	> 7.00	> 7.00	> 7.00
COc1ccc2cc1CNC(=O)[C@H](CCc1ccccc1)NC(=O)[C@@H](NC(C)=O)CC(=O)N1CCCC(CCO2)C1 (stereo partly drawn) [Compound 211, N-((9S,12S)-5^4-methoxy-8,11,14-trioxo-9-phenethyl-4-oxa-7,10-diaza-1(3,1)-piperidina-5(1,3)-benzenacyclotetradecaphane-12-yl)acetamide]	6.30 to 7.00	> 7.00	6.30 to 7.00	6.00 to 6.30
CC(=O)N[C@H]1CC(=O)N2CCOC(CCOc3ccc(C)c(c3)CNC(=O)[C@H](CCc3ccccc3)NC1=O)C2 (stereo partly drawn) [Compound 258, N-((9S,12S)-5^4-methyl-8,11,14-trioxo-9-phenethyl-4-oxa-7,10-diaza-1(2,4)-morpholina-5(1,3)-benzenacyclotetradecaphane-12-yl)acetamide]	6.30 to 7.00	> 7.00	6.30 to 7.00	6.00 to 6.30
Cc1ccc2cc1CNC(=O)[C@H](CCc1ccccc1)NC(=O)[C@@H](NC(=O)CCc1ccc(-c3ccccc3)cc1)CC(=O)N1CCCC(CCO2)C1 (stereo partly drawn) [Compound 176, 3-([1,1′-biphenyl]-4-yl)-N-((9S,12S)-5^4-methyl-8,11,14-trioxo-9-phenethyl-4-oxa-7,10-diaza-1(3,1)-piperidina-5(1,3)-benzenacyclotetradecaphane-12-yl)propanamide]	> 7.00	> 7.00	> 7.00	> 7.00
Cc1ccc2cc1CNC(=O)[C@H](CCc1ccccc1)NC(=O)[C@@H](NS(C)(=O)=O)CC(=O)N1CCCC(CCO2)C1 (stereo partly drawn) [Compound 37, N-((9S,12S)-5^4-methyl-8,11,14-trioxo-9-phenethyl-4-oxa-7,10-diaza-1(3,1)-piperidina-5(1,3)-benzenacyclotetradecaphane-12-yl)methanesulfonamide]	> 7.00	> 7.00	> 7.00	> 7.00
COc1ccccc1CC(=O)N[C@H]1CC(=O)N2CCCC(CCOc3ccc(C)c(c3)CNC(=O)[C@H](CCc3ccccc3)NC1=O)C2 (stereo partly drawn) [Compound 84, 2-(2-methoxyphenyl)-N-((9S,12S)-5^4-methyl-8,11,14-trioxo-9-phenethyl-4-oxa-7,10-diaza-1(3,1)-piperidina-5(1,3)-benzenacyclotetradecaphane-12-yl)acetamide]	> 7.00	> 7.00	> 7.00	> 7.00
Cc1ccc2cc1CNC(=O)[C@H](CCc1ccccc1)NC(=O)[C@@H](NC(=O)[C@H](C)c1ccccc1)CC(=O)N1CCCC(CCO2)C1 (stereo partly drawn) [Compound 80, (2R)-N-((9S,12S)-5^4-methyl-8,11,14-trioxo-9-phenethyl-4-oxa-7,10-diaza-1(3,1)-piperidina-5(1,3)-benzenacyclotetradecaphane-12-yl)-2-phenylpropanamide]	> 7.00	> 7.00	> 7.00	> 7.00
Cc1ccc2cc1CNC(=O)[C@H](CCc1ccccc1)NC(=O)[C@@H](NC(=O)CCc1cccc(F)c1)CC(=O)N1CCCC(CCO2)C1 (stereo partly drawn) [Compound 25, 3-(3-fluorophenyl)-N-((9S,12S)-5^4-methyl-8,11,14-trioxo-9-phenethyl-4-oxa-7,10-diaza-1(3,1)-piperidina-5(1,3)-benzenacyclotetradecaphane-12-yl)propanamide]	> 7.00	> 7.00	> 7.00	> 7.00
CNCC(=O)N[C@H]1CC(=O)N2CCCC(CCOc3ccc(C)c(c3)CNC(=O)[C@H](CCc3ccccc3)NC1=O)C2 (stereo partly drawn) [Compound 129, N-((9S,12S)-5^4-methyl-8,11,14-trioxo-9-phenethyl-4-oxa-7,10-diaza-1(3,1)-piperidina-5(1,3)-benzenacyclotetradecaphane-12-yl)-2-(methylamino)acetamide]	> 7.00	> 7.00	> 7.00	> 7.00
Cc1ccc2cc1CNC(=O)[C@H](CCc1ccccc1)NC(=O)[C@@H](NC(=O)Cc1ccc(N)cc1)CC(=O)N1CCCC(CCO2)C1 (stereo partly drawn) [Compound 128, 2-(4-aminophenyl)-N-((9S,12S)-5^4-methyl-8,11,14-trioxo-9-phenethyl-4-oxa-7,10-diaza-1(3,1)-piperidina-5(1,3)-benzenacyclotetradecaphane-12-yl)acetamide]	> 7.00	> 7.00	> 7.00	> 7.00
Cc1ccc2cc1CNC(=O)[C@H](CCc1ccccc1)NC(=O)[C@@H](NC(=O)c1n[nH]c3ccccc13)CC(=O)N1CCCC(CCO2)C1 (stereo partly drawn) [Compound 60, N-((9S,12S)-5^4-methyl-8,11,14-trioxo-9-phenethyl-4-oxa-7,10-diaza-1(3,1)-piperidina-5(1,3)-benzenacyclotetradecaphane-12-yl)-1H-indazole-3-carboxamide]	> 7.00	> 7.00	> 7.00	6.30 to 7.00
Cc1ccc2cc1CNC(=O)[C@H](CCc1ccccc1)NC(=O)[C@@H](NC(=O)C(C)(C)CO)CC(=O)N1CCCC(CCO2)C1 (stereo partly drawn) [Compound 284, 3-hydroxy-2,2-dimethyl-N-((9S,12S)-5^4-methyl-8,11,14-trioxo-9-phenethyl-4-oxa-7,10-diaza-1(3,1)-piperidina-5(1,3)-benzenacyclotetradecaphane-12-yl)propanamide]	> 7.00	> 7.00	> 7.00	6.30 to 7.00
Cc1ccc2cc1CNC(=O)[C@H](CCc1ccccc1)NC(=O)[C@@H](Nc1nc3ccccc3[nH]1)CC(=O)N1CCCC(CCO2)C1 (stereo partly drawn) [Compound 45, (9S,12S)-12-((1H-benzo[d]imidazol-2-yl)amino)-5^4-methyl-9-phenethyl-4-oxa-7,10-diaza-1(3,1)-piperidina-5(1,3)-benzenacyclotetradecaphane-8,11,14-trione]	> 7.00	> 7.00	6.30 to 7.00	6.30 to 7.00
Cc1ccc2cc1CNC(=O)[C@H](CCc1ccccc1)NC(=O)[C@@H](NC(=O)[C@@H](N)Cc1ccccc1)CC(=O)N1CCCC(CCO2)C1 (stereo partly drawn) [Compound 179, (2R)-2-amino-N-((9S,12S)-5^4-methyl-8,11,14-trioxo-9-phenethyl-4-oxa-7,10-diaza-1(3,1)-piperidina-5(1,3)-benzenacyclotetradecaphane-12-yl)-3-phenylpropanamide-]	> 7.00	> 7.00	> 7.00	> 7.00
CC(=O)N[C@H]1CC(=O)N2CCCC(CCOc3ccc(C)c(c3)CNC(=O)C(c3cnn(CCCC(=O)O)c3)NC1=O)C2 (stereo partly drawn) [Compound 568, 4-(4-((12S)-12-acetamido-5^4-methyl-8,11,14-trioxo-4-oxa-7,10-diaza-1(3,1)-piperidina-5(1,3)-benzenacyclotetradecaphane-9-yl)-1H-pyrazol-1-yl)butanoic acid]	> 7.00	> 7.00	6.30 to 7.00	> 7.00
CC(=O)N[C@H]1CCC(=O)N2CCCC(C2)Oc2ccc(C)c(c2)CNC(=O)[C@H](CCc2ccccc2)NC1=O (stereo partly drawn) [Compound 148, N-((7S,10S)-3^4-methyl-6,9,13-trioxo-7-phenethyl-2-oxa-5,8-diaza-1(3,1)-piperidina-3(1,3)-benzenacyclotridecaphane-10-yl)acetamide]	5.30 to 6.00	> 7.00	6.30 to 7.00	< 5.30
Cc1ccc2cc1CNC(=O)[C@H](CCc1ccccc1)NC(=O)CCCCC(=O)N1CCCC(CCO2)C1 (stereo partly drawn) [Compound 16, (9S)-5^4-methyl-9-phenethyl-4-oxa-7,10-diaza-1(3,1)-piperidina-5(1,3)-benzenacyclohexadecaphane-8,11,16-trione]	> 7.00	> 7.00	6.30 to 7.00	6.00 to 6.30
